From PMC10301922, “Anti-Oxidant, Anti-Mutagenic Activity and Safety Evaluation of Antrocin” (Toxics, 2023)
Where two headings read alike, the source gives them in different places.

Assays:
[1] = system: Salmonella typhimurium TA100
[2] = system: Salmonella typhimurium TA1535; experiment: Antimutagenicity test, TA1535
[3] = system: CHO-K1 cells; details: with S9 (3 h), 25 μg/mL, positive control
Experimental: A chromosomal aberration test was performed to evaluate the potential for antrocin to induce structural chromosomal abnormalities in Chinese hamster ovary cells (CHO-K1 cells). The test followed the protocol in Genetic Toxicology Testing: A Laboratory Manual. CHO-K1 cells were obtained from the Bioresource Collection and Research Center (BCRC), and were cultured in Ham F-12 medium with 10% fetal bovine serum and 0.1% Penicillin–Streptomycin at 5% CO2 in a 37 °C incubator. […] Three experimental conditions were conducted: 3 h with and without S9 (short term), and 19 h without S9 (long term). […] CHO-K1 cells were cultured in 25T flasks, incubated with samples for 3 or 19 h with and without S9, and harvested at the time of 1.5 cell cycle lengths (about 21 h). Two hours before harvesting, 100 μL colcemid (10 μg/mL) was added to disrupt cell mitosis. Collected cells were then treated with 0.6% KCl solution and fixed with acetic acid–methanol (1:3) solution. After fixation, cells were stained with Diff-Quik on a glass slide. A total of 300 cells in metaphase per group were observed, and the number of chromosomal aberrations was recorded. The chromosomal aberration rate (%) was calculated using the following formula: (number of cells with aberrations/total number of cells examined) × 100. A Student’s t-test was used for statistical analysis, and a significant increase (p < 0.05) compared to the negative control indicated a positive response.

[4] = system: ICR male mice; experiment: In vivo mammalian erythrocyte micronucleus test; details: for Mn-RETs/1000RETs (‰) / RETs/1000RBCs (‰): 60 mg/kg bw ip; for frequencies of micronuclei: positive control group (60 mg/kg ip)
[5] = system: Salmonella typhimurium TA98
[6] = system: Salmonella typhimurium TA98; experiment: Ames test (plate incorporation), TA98; details: TA98, with S9, positive reagent 5 μg/plate
[7] = system: Salmonella typhimurium TA102; experiment: Ames test (plate incorporation), TA102; details: TA102, with S9, positive reagent 5 μg/plate
[8] = system: Salmonella typhimurium TA1535; experiment: Ames test (plate incorporation), TA1535; details: TA1535, with S9, positive reagent 5 μg/plate
[9] = system: Salmonella typhimurium TA1537; experiment: Ames test (plate incorporation), TA1537; details: TA1537, with S9, positive reagent 5 μg/plate
[10] = system: Sprague Dawley rats; details: rat, in vivo, po, 7.5 mg/kg
[11] = system: Sprague Dawley rats; details: rat, in vivo, po, 7.5 mg/kg; remark: listed apart in the source
[12] = system: Sprague Dawley rats; details: rat, in vivo, po, 7.5 mg/kg; remark: listed apart in the source
[13] = system: Sprague Dawley rats; details: rat, in vivo, 7.5 mg/kg
[14] = system: Wistar rats; set-up: method as in earlier work; details: 28-day oral; cited from earlier work
[15] = female, Sprague Dawley, po, 28 days
[16] = male, Sprague Dawley, po, 28 days

[N-]=[N+]=[N-].[Na+] [sodium azide, reference compound]
Number of Revertant ([1]; TA100, without S9, positive reagent 5 μg/plate): 2223.0 ± 53.2 Colony/Plate
reverse mutants, times more than the negative control group ([2]; TA1535, without S9, 5 μg/plate): about 122 times
Number of Revertant ([2]; TA1535, without S9, positive reagent alone 5 μg/plate): 1313.0 ± 42.0 Colony/Plate

O=P1(N(CCCl)CCCl)NCCCO1 (stereo not drawn) [Cyclophosphamide, cyclophosphamide, reference compound]
Frequency of Chromosomal Aberration (%) [3]: 15.3 ± 2.3%
Total Aberrations [3]: 46/300
Mn-RETs/1000RETs (‰) ([4]; 48 h): 22.9 ± 12.2 ‰
RETs/1000RBCs (‰) ([4]; 48 h): 3.6 ± 2.1 ‰
frequencies of micronuclei ([4]; 48 h): 3.6 ± 2.1 ‰
Mn-RETs/1000RETs (‰) ([4]; 72 h): 6.8 ± 3.7 ‰
RETs/1000RBCs (‰) ([4]; 72 h): 3.9 ± 2.1 ‰
frequencies of micronuclei ([4]; 72 h): 3.9 ± 2.1 ‰

Nc1ccc2cc3ccccc3cc2c1 [2-AA, 2-aminoanthracene, reference compound]
Number of Revertant ([1]; TA100, with S9, positive reagent 5 μg/plate): 2099.7 ± 145.5 Colony/Plate
reverse mutants, times more than the negative control group ([5]; TA98, with S9, 25 μg/plate): about 275 times
Number of Revertant ([5]; TA98, with S9, positive reagent alone 25 μg/plate): 6055.0 ± 661.0 Colony/Plate
reverse mutants, times more than the negative control group ([2]; TA1535, with S9, 25 μg/plate): about 23 times
Number of Revertant ([2]; TA1535, with S9, positive reagent alone 25 μg/plate): 270.3 ± 7.5 Colony/Plate
Number of Revertant [6]: 1881.3 ± 434.2 Colony/Plate
Number of Revertant [7]: 1532.0 ± 204.2 Colony/Plate
Number of Revertant [8]: 535.0 ± 138.6 Colony/Plate
Number of Revertant [9]: 269.0 ± 21.9 Colony/Plate

CNC(=O)c1cc(Oc2ccc(NC(=O)Nc3ccc(Cl)c(C(F)(F)F)c3)cc2)ccn1 [Sorafenib, sorafenib]
BASO [10]: 0.1 ± 0.1%
GGT [11]: <1 U/L
TB [11]: <0.1 mg/dL
Brain [12]: 2.0 ± 0.1 g
Adrenal gland: Congestion, cortex, focal, slight; incidence [13, 15]: 1/5
Bone, femur: Hypertrophy, epiphysis, diffuse, slight to moderate/severe; incidence [13, 15]: 5/5
Kidney: Cast, tubule, focal, slight; incidence [13, 15]: 1/5
Kidney: Infarct, tubule, focal, slight; incidence [13, 15]: 1/5
Ovary: Increase, follicle, multifocal, moderate to moderate/severe; incidence [13, 15]: 4/4
Adrenal gland: Congestion, cortex, multifocal, slight; incidence [13, 16]: 1/5
Bone marrow, femur: Hypocellularity, diffuse, slight to moderate/severe; incidence [13, 16]: 3/5
Bone marrow, sternum: Hypocellularity, diffuse, moderate; incidence [13, 16]: 3/5
Bone, femur: Hypertrophy, epiphysis, diffuse, slight to moderate/severe; incidence [13, 16]: 5/5
Epididymis: Granuloma, spermatic, focal, moderate; incidence [13, 16]: 1/5
Heart: Infiltration, mononuclear cell, focal, minimal to slight; incidence [13, 16]: 1/5
Kidney: Cast, tubule, focal, minimal; incidence [13, 16]: 3/5
Spleen: Atrophy, red pulp, diffuse, slight to moderate; incidence [13, 16]: 5/5
Salivary gland, Sublingual lobe: histopathological lesions [13]: -
Aorta: histopathological lesions ([13]; po): -
Cervix: histopathological lesions ([13]; po): -
Coagulative gland: histopathological lesions ([13]; po): -
Esophagus: histopathological lesions ([13]; po): -
Eyes: histopathological lesions ([13]; po): -
Harderian gland: Infiltration, mononuclear cell, focal, minimal; incidence ([13]; po): -
Harderian gland: histopathological lesions ([13]; po): -
Heart: histopathological lesions ([13]; po): -
Intestine, large, Caecum: histopathological lesions ([13]; po): -
Intestine, large, Colon: histopathological lesions ([13]; po): -
Intestine, large, Rectum: histopathological lesions ([13]; po): -
Intestine, small, Duodenum: histopathological lesions ([13]; po): -
Intestine, small, Ileum: histopathological lesions ([13]; po): -
Intestine, small, Jejunum: histopathological lesions ([13]; po): -
Kidney: Cyst, tubule, focal, slight; incidence ([13]; po): -
Liver: Fatty change, multifocal, slight; incidence ([13]; po): -
Liver: histopathological lesions ([13]; po): -
Lung: histopathological lesions ([13]; po): -
Lymph node, Cervical: histopathological lesions ([13]; po): -
Lymph node, Mesenteric: histopathological lesions ([13]; po): -
Lymph node: histopathological lesions ([13]; po): -
Mammary gland: histopathological lesions ([13]; po): -
Optic nerve: histopathological lesions ([13]; po): -
Oviduct: histopathological lesions ([13]; po): -
Pancreas: histopathological lesions ([13]; po): -
Parathyroid gland: histopathological lesions ([13]; po): -
Pituitary: histopathological lesions ([13]; po): -
Prostate gland: Infiltration, mononuclear cell, focal, minimal to slight; incidence ([13]; po): -
Salivary gland, Mandibular lobe: histopathological lesions ([13]; po): -
Salivary gland: histopathological lesions ([13]; po): -
Sciatic nerve: histopathological lesions ([13]; po): -
Seminal vesicle: histopathological lesions ([13]; po): -
Skeletal muscle: histopathological lesions ([13]; po): -
Skin: histopathological lesions ([13]; po): -
Spinal cord: histopathological lesions ([13]; po): -
Spleen: histopathological lesions ([13]; po): -
Stomach: histopathological lesions ([13]; po): -
Testis: histopathological lesions ([13]; po): -
Thymus: histopathological lesions ([13]; po): -
Thyroid gland: histopathological lesions ([13]; po): -
Tongue: histopathological lesions ([13]; po): -
Trachea: histopathological lesions ([13]; po): -
Urinary bladder: histopathological lesions ([13]; po): -
Uterus: histopathological lesions ([13]; po): -
Vagina: histopathological lesions ([13]; po): -
dose above which abnormality was found (clinical observation, hematology, biochemistry, histopathology) [14]: above 25 mg/kg
